From PMC7004148, “Flexible Fragment Growing Boosts Potency of Quorum‐Sensing Inhibitors against Pseudomonas aeruginosa Virulence” (Chemmedchem, 2019)
Where “and” joins values, the source holds several entries; their conditions need not be identical. Equal entries are not always repeated.

How the values were obtained:
PqsR [1] = biological target: T1, PqsR (Pseudomonas aeruginosa, UniProt Q9I4X0); assay: PqsR β-galactosidase reporter gene assay in E. coli; type: cell-based; parameters: expressed in transfected cells; host or cells: E. coli DH5α carrying plasmid pEAL08-2; details: in the presence of 50 nM PQS; for IC50 (inverse agonistic/antagonistic activity): n.i.=no inhibition (activity≤15 %)
Description: 5. E. coli reporter-gene assay & dose-response curves
PqsR Reporter gene assay in E. coli. The inverse agonistic/antagonistic activity of potential PqsR ligands was evaluated in a β-galactosidase reporter gene assay in E. coli as previously described.[26] In short, test compounds were co-incubated with E. coli DH5α cells containing the plasmid pEAL08-2,[27] which expresses PqsR and the β-galactosidase LacZ under the control of the pqsA promoter. The inverse agonistic/antagonistic activity of compounds was measured in the presence of 50 nM PQS. After incubation, galactosidase activity was quantified photometrically and expressed as ratio of controls. The given IC50 values represent the mean of at least two independent experiments using at least eight different concentrations of test compound with n = 4. Non-linear regression analysis was done using the log (inhibitor) vs response model included in the GrapPad Prism 5.0 software package.
Target sequence in this assay (Q9I4X0 whole entry): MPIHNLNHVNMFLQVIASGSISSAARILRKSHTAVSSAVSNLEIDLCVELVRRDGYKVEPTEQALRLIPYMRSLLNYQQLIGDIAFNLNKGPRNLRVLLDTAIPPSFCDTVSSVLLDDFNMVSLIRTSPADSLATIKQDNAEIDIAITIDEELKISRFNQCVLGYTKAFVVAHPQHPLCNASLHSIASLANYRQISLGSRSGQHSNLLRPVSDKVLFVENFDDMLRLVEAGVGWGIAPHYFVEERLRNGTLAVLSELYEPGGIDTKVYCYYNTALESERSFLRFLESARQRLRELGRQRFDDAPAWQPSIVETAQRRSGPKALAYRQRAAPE

PqsR [2] = biological target: T1, PqsR; assay: biochemical; type: binding; parameters: H6SUMOPqsRc87 and T265A mutant H6SUMOPqsRc87 for ITC studies was expressed; made in house; host or cells: E. coli BL21 (λDE3)
Description: 3.2 Expression and Purification of H6SUMOPqsRc87
H6SUMOPqsRc87 and T265A mutant H6SUMOPqsRc87 for ITC studies was expressed and purified as previously reported.[8,9] Briefly, E. coli BL21 (λDE3) transfected with the pSUMO3_ck4_pqsRC87 or pSUMO3_ck4_T265ApqsRC87 plasmid[8] were grown in LB medium containing 50 µg mL-1 kanamycin at 37 °C to an OD600 of approximately 0.8 and expression was induced with 0.2 mM IPTG for 16 h at 16 °C. The protein was purified using nickel affinity chromatography in a one step gradient.
ITC titrations were performed as described before.[8,9] Briefly, ITC experiments were carried out using an ITC200 instrument (Microcal Inc., GE Healthcare). The titrations were performed on 50-150 µM H6SUMO-PqsRC87 in the 200 µL sample cell using 19 injections of 2 µL ligand solution (0.5-1.5 mM) every 180 s. The data were collected and the area under each peak was integrated. To correct for heats of dilution and mixing the final base line consisting of small peaks of the same size at the end of the titration were substracted.
Target sequence in this assay (Q9I4X0 87-332): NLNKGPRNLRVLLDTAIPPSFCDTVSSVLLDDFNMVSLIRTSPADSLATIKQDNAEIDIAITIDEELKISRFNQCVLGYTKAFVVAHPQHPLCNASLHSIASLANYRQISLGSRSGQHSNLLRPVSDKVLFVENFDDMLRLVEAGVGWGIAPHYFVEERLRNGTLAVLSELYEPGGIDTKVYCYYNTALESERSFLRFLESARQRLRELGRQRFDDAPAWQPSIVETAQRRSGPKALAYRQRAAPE

[3] = tested on: pyocyanin in P. aeruginosa PA14; assay: Pyocyanin assay in P. aeruginosa PA14 cultures; type: cell-based, Pseudomonas aeruginosa PA14; details: Pseudomonas aeruginosa
Description: 6. Effects in P. aeruginosa
Pyocyanin Assay. The inhibition of virulence factor pyocyanin was measured as described previously[26] following a procedure established by Essar et al.[28] Briefly, Pseudomonas aeruginosa PA14 cultures were grown in the presence of inhibitors or DMSO as control for 16 h. Pyocyanin was determined photometrically after extraction of the cultures with chloroform and re-extraction with 0.2 M HCl. Protonated red colored pyocyanin was determined by measuring OD520 and normalizing to OD600. None of the compound impaired bacterial viability as observed by the OD600 parameter. Inhibition values were expressed in relation to the DMSO control. Each value is the mean of at least two independent experiments with n=3.
The given IC50 values represent the mean of at least two experiments using at least five different concentrations. Curve fitting was performed using the log (inhibitor) vs response model with constrained bottom = 0 and top =100 (GraphPad Prism 5.0).
Figure S4: Inhibition of virulence factor pyocyanin was evaluated in the clinical isolate PA14.
Representative dose-response curves a) compound 11 b) compound 20. Black dotes (•) represent the reduction of pyocyanin in presents of a given compound concentration relative to DMSO control (= 0 %). The continuous black line is the none -linear regression analysis to […]
(1 picture or pasted object on this page, not shown here)

[4] = Table 1, EE=−ΔH/(heavy atom count)
[5] = Table 1, LE=−ΔG/(heavy atom count)

For `Nc1cc(C#CC2CC2)cc(C(F)(F)F)n1` [Compound 9], the “IC50 (inverse agonistic/antagonistic activity)” value (PqsR [1]) was “n.i”, the Kd (PqsR [2]) was 7.5 ± 0.1 µM and the “-TΔS” value (PqsR [2]; Table S1) was -15.9 ± 2.5 kJ/mol. The ΔG (PqsR [2]; Table S1) was -28.9 ± 0 kJ/mol, the ΔH (PqsR [2]; Table S1) was -15.5 ± 2.5 kJ/mol and -15.5 kJ/mol and the EE (PqsR [2]; Table S1, enthalpic efficiency) was 0.962 kJ/mol. The LE (PqsR [2]; Table S1, ligand efficiency) was 1.8 kJ/mol.

With `Nc1cc(NCc2ccccc2)cc(C(F)(F)F)n1` [Compound 12] the Kd (PqsR [2]) was 1.4 ± 0.5 µM, the “-TΔS” value (PqsR [2]; Table S1) was 13.4 ± 2.1 kJ/mol and the ΔG (PqsR [2]; Table S1) was -33.9 ± 1.3 kJ/mol. The EE (PqsR [2]; Table S1, enthalpic efficiency) was 2.38 kJ/mol and the LE (PqsR [2]; Table S1, ligand efficiency) was 1.8 kJ/mol.

Molecule `Nc1cc(NCC(=O)Nc2ccc(F)cc2)cc(C(F)(F)F)n1` [Compound 22] has an inhibition at 100 µM ([3]; PA14, read-out: Pyocyanin inhibition) of 37%.

`Nc1cc(Br)ccn1` [Compound 5] was tested, and the Kd (PqsR [2]) was 21.3 ± 3.4 µM, the EE (PqsR [2]; [4]) was 3.01 kJ/mol and the ΔG (PqsR [2]; Table 1, ITC at 298 K) was -26.8 ± 0.42 kJ/mol. For the same molecule, the ΔH (PqsR [2]; Table 1, ITC at 298 K) was -24.3 ± 0.42 kJ/mol, the “−TΔS” value (PqsR [2]; Table 1, ITC at 298 K) was -2.5 ± 0.84 kJ/mol and the LE (PqsR [2]; [5]) was 3.35 kJ/mol.

For `Nc1cc(N2CCC(c3ccc(F)cc3)C2)cc(C(F)(F)F)n1` (stereo not shown) [Compound 18], the “IC50 (inverse agonistic/antagonistic activity)” value (PqsR [1]) was “n.i”.

Work on `CC(C)(C)c1ccc(C(=O)NO)cc1` [Compound 1] yielded a Kd (PqsR [2]) of 4.1 ± 0.6 µM, an EE (PqsR [2]; [4]) of 2.64 kJ/mol and a ΔG (PqsR [2]; Table 1, ITC at 298 K) of -31 ± 0.42 kJ/mol. The ΔH (PqsR [2]; Table 1, ITC at 298 K) was -37.2 ± 0.84 kJ/mol, the “−TΔS” value (PqsR [2]; Table 1, ITC at 298 K) was 6.28 ± 1.3 kJ/mol and the LE (PqsR [2]; [5]) was 2.22 kJ/mol.

Molecule `CCCCCCCc1[nH]c2ccc([N+](=O)[O-])cc2c(=O)c1C(N)=O` [Compound R2, reference compound] has an IC50 ([3]; PA14, read-out: Pyocyanin IC50, PA14 cultures, photometric quantification, mean of at least two independent experiments, SD<25 %) of 2 µM.

With `Nc1nnc(-c2cccc(C(F)(F)F)c2)o1` [Compound 2] the Kd (PqsR [2]) was 1.3 ± 0.3 µM, the EE (PqsR [2]; [4]) was 2.22 kJ/mol and the ΔG (PqsR [2]; Table 1, ITC at 298 K) was -33.5 ± 0.42 kJ/mol. The ΔH (PqsR [2]; Table 1, ITC at 298 K) was -35.6 ± 2.1 kJ/mol, the “−TΔS” value (PqsR [2]; Table 1, ITC at 298 K) was 1.7 ± 2.5 kJ/mol and the LE (PqsR [2]; [5]) was 2.09 kJ/mol.

For `Nc1ncccc1Br` [Compound 6], the Kd (PqsR [2]) was over 50 µM.

`Nc1cc(-c2ccc(F)cc2)cc(C(F)(F)F)n1` [Compound 10] was tested, and the “Inverse agonistic/antagonistic activity at a given concentration” value (PqsR [1]; @ 100 μM) was 29 % @ 100 μM.

For `Nc1cc(NCc2ccc(F)cc2F)cc(C(F)(F)F)n1` [Compound 13], the Kd (PqsR [2]) was 1.3 ± 0.3 µM, the “-TΔS” value (PqsR [2]; Table S1) was 14.6 ± 3.3 kJ/mol and the ΔG (PqsR [2]; Table S1) was -33.5 ± 0.42 kJ/mol. The EE (PqsR [2]; Table S1, enthalpic efficiency) was 2.3 kJ/mol and the LE (PqsR [2]; Table S1, ligand efficiency) was 1.67 kJ/mol.
